What was measured:
[1] = tested on: oxidoreductase according to the invention; experiment: Substrate spectrum (relative enzyme activity with different substrates); format: biochemical, Pichia capsulata; settings: activity with ethyl-4-chloroacetoacetate = 100%
Description: Incubation lasted for about 2 to 3 min, thereupon 100 μl of a substrate solution (100 mM ethyl-4-chloro-3-oxobutanoate were added.
The substrate spectrum of the oxidoreductase according to the invention was determined by measuring the enzyme activity with a number of ketones, oxoacids and esters thereof. […] The activity with ethyl-4-chloroacetoacetate was equalled to 100% and all the other substrates were set in relation thereto.

[2] = tested on: oxidoreductase according to the invention; experiment: Enantiomeric excess of the alcohol formed from selected substrates (GC); format: biochemical, Pichia capsulata; settings: 24 h
Description: For the determination of the ee-value, the following reaction batch was used for selected substrates.
The batches for ee-determination were extracted with chloroform after 24 h and the enantiomeric excess of the resulting alcohol was determined via GC.

[3] = tested on: recombinant oxidoreductase from Pichia capsulata; experiment: Preparative conversions with recombinant oxidoreductase; format: biochemical; settings: for share of the substrate used that was reduced: after 24 h at room temperature, isopropanol as cosubstrate, NAD; for enantiomeric excess of the recovered product: preparative batch, 24 h at room temperature
Description: For the preparative batch, a mixture of […] of a buffer (100 mM TEA, pH=7, 1 mM ZnCl2, 10% glycerol), 4 1 isopropanol, 4 1 4-chloroacetoacetate, 4 g NAD and 3.6 million U of recombinant oxidoreductase from Pichia capsulata was incubated for 24 h at room temperature under constant mixing. […] Subsequently, the reaction mixture was extracted with ethyl acetate, the solvent was removed by means of a rotary evaporator and the raw product was distilled.
For the preparative batch, a mixture of 164 ml of a buffer (100 mM TEA, pH=7, 1 mM ZnCl2, 20% glycerol), 16 ml isopropanol, 20 g 2-chloro-1-(3-chlorophenyl)ethane-1-one dissolved in 20 ml methyl tert-butyl ether (MTBE), 10 mg NAD and 20,000 U of recombinant oxidoreductase from Pichia capsulata was incubated for 24 h at room temperature under constant mixing. […] Subsequently, the reaction mixture was extracted with ethyl acetate, and the solvent was removed using the rotary evaporator.

In the case of `CC(=O)Cc1ccccc1` [1-Phenyl-2-propanone], the Relative activity % [1] is reported as 24% and the Stereoselectivity ([2]; S-alcohol in excess) is reported as 97% S.

Work on `CCC(C)=O` [2-Butanone] yielded a Relative activity % [1] of 99% and a Stereoselectivity ([2]; S-alcohol in excess) of 50% S.

In the case of `O=C(CCl)c1cccc(Cl)c1` [2-Chloro-1-(3-chlorophenyl)ethane-1-one], the Relative activity % [1] is reported as 21%, the Stereoselectivity ([2]; R-alcohol in excess) is reported as 100% R and the “share of the substrate used that was reduced” value [3] is reported as 96%.

For `CCCCCCC(C)=O` [2-Octanone], the Relative activity % [1] was 88% and the Stereoselectivity ([2]; S-alcohol in excess) was 100% S.

`O=C(O)C(=O)Cc1ccccc1` [2-Oxo-3-phenyl propionic acid] showed a Relative activity % [1] of 0%.

Work on `CCC(=O)C(=O)O` [2-Oxobutanoic acid] yielded a Relative activity % [1] of 0%.

`CCCC(=O)C(=O)O` [2-Oxovaleric acid] was tested, and the Relative activity % [1] was 0%.

Work on `CCCCCC(=O)CC` [3-Octanone] yielded a Relative activity % [1] of 30%.

`CC(=O)CCO` [4-Hydroxy-2-butanone] showed a Relative activity % [1] of 99% and a Stereoselectivity ([2]; S-alcohol in excess) of 90% S.

`O[C@@H](CCl)c1cccc(Cl)c1` [(R)-2-chloro-1-(3-chlorophenyl)ethane-1-ol] was tested, and the “enantiomeric excess of the recovered product” value [3] was 100%.

With `CC(=O)c1ccccc1` [Acetophenone] the Relative activity % [1] was 4%.

With `CCCCCCCC(=O)c1ccccc1` [Caprylophenone] the Relative activity % [1] was 0%.

`COC(=O)CCCCC(=O)CC(=O)OC` [Dimethyl-3-oxo-1,8-octandioic acid] was tested, and the Relative activity % [1] was 3.5%.

Compound `CCOC(=O)CC(C)=O` [Ethyl acetoacetate] has a Relative activity % [1] of 100% and a Stereoselectivity ([2]; S-alcohol in excess) of 99% S.

`CCOC(=O)C(=O)c1ccccc1` [Ethyl phenyl glyoxylate] gave a Relative activity % [1] of 5.2% and a Stereoselectivity ([2]; R-alcohol in excess) of 100% R.

With `CCOC(=O)C(C)=O` [Ethyl pyruvate] the Relative activity % [1] was 10% and the Stereoselectivity ([2]; S-alcohol in excess) was 100% S.

Compound `CCOC(=O)C(=O)CCc1ccccc1` [Ethyl-2-oxo-4-phenylbutanoic acid] has a Relative activity % [1] of 76% and a Stereoselectivity ([2]; S-alcohol in excess) of 95% S.

`CCCC(=O)C(=O)OCC` [Ethyl-2-oxovaleriate] showed a Relative activity % [1] of 41% and a Stereoselectivity ([2]; S-alcohol in excess) of 97% S.

`CCOC(=O)CC(=O)CC` [Ethyl-3 oxovaleriate] gave a Relative activity % [1] of 67%.

For `CCOC(=O)CC(=O)CCl` [Ethyl-4-chloroacetoacetate], the Relative activity % [1] was 100%, the Stereoselectivity ([2]; R-alcohol in excess) was 99% R and the “share of the substrate used that was reduced” value [3] was 99%.

For `CCOC(=O)CCCCC(=O)CCCl` [Ethyl-8-chloro-6-oxooctanoic acid], the Relative activity % [1] was 20% and the Stereoselectivity ([2]; R-alcohol in excess) was 100% R.

For `COC(=O)CC(C)=O` [Methyl acetoacetate], the Relative activity % [1] was 150% and the Stereoselectivity ([2]; S-alcohol in excess) was 97% S.

In the case of `CCOC(=O)C[C@@H](O)CCl` [ethyl-(R)-4-chloro-3-hydroxybutanoate], the “enantiomeric excess of the recovered product” value [3] is reported as 99%.

Source: patent publication US7575909B2, “Oxidoreductase from pichia capsulata” (IEP GmbH, priority 2003, dated 2009)
